According to patent US7083779B2 (Council of Scientific and Industrial Research, priority 2003, dated 2006):

Experiments:
P. falciparum = details: cited from earlier work

Compound | LC50 against P. falciparum (P. falciparum) | Reversibility of effect on cultured fibroblasts (cell viability and protein quantification) (cultured fibroblasts) | Cytotoxicity (cell viability) (cultured fibroblasts; 0.001 %)
CC(=O)O[C@@H]1C[C@H]2C(C)(C)C(=O)CC[C@]2(C)[C@H]2CC[C@@]3(C)[C@H](c4ccoc4)OC(=O)[C@H]4O[C@]43[C@@]21C [dihydrogedunin] | 0.72 to 1.74 µg/mL |  | 
[H]/N=C(\N/C(=N/[H])NCCCCCCNC(=N)NC(=N)Nc1ccc(Cl)cc1)Nc1ccc(Cl)cc1 [Chlorhexidine] |  | damage the cells irreversibly | cytotoxic even at 0.001%
CC(=O)O[C@@H]1C[C@H]2C(C)(C)C(=O)C=C[C@]2(C)[C@H]2CC[C@@]3(C)[C@H](c4ccoc4)C(=O)[C@H]4O[C@]43[C@@]21C [nimbinin] | 0.72 to 1.74 µg/mL |  | 
